In paper PMC10412636, “An analysis of interactions between three structurally diverse anthocyanidins, as well as their glucosides, and model biological membranes, albumin, and plasmid DNA” (Scientific Reports, 2023):
Values belong to the compound of their own block, whether it stands above or below them.

Tests used:
[1] = DPH fluorescence quenching, dissociation constant with MM liposome membrane; assay type: binding; settings: 37 °C
Experimental: (§1) Two types of liposomes were used to study interactions with biological membranes: liposomes mimicking the composition of cancer cell membranes (mimic membrane liposome—MM) and liposomes formed from lipids extracted from human blood erythrocyte membranes (red blood cell membrane liposome—RBCM). […] Both lipids, dissolved in chloroform (MM liposome) and n-decane (RBCM liposome), were evaporated under a nitrogen atmosphere, and then dried in a desiccator for 90 min under a vacuum. The obtained dry lipid film was hydrated in phosphate buffer, pH 7.4, obtaining a concentration of 0.1 mg/ml, and then vortexed for one minute until a homogeneous, milky suspension was observed. The mixture was sonicated (Sonic, Milano, Italia) for 15 min keeping the sample in a bath of ice water, thus providing a cooling temperature of 0 °C. The suspension was then processed (extrusion) through polycarbonate filters with pore diameters of 100 and 200 nm using a Lipex extruder (Evonik). Liposomes, which had been prepared according to this procedure, was used in fluorimetric studies.
(§2) The phenomenon of quenching the fluorescence of the DPH probe by biologically active substances enabled us to evaluate the partition coefficient (Kd, dissociation constant) of anthocyanins with both MM and RBCM liposome membranes. For this purpose, changes in the fluorescence intensity of this probe were checked and the coefficient was calculated using the equation[48]:2 1/F0/F-1=Kd/[liposomes]×1/[anthocyanins]+1/liposomes where F0—fluorescence intensity in the absence of anthocyanins (control sample), F—fluorescence intensity in the presence of anthocyanins, [liposomes]—concentration of liposomes in mg/ml, [anthocyanins]—concentration of anthocyanins tested mg/ml.
(§3) Liposomes (the concentration of lipids in the sample was 0.1 mg/ml) were incubated for 30 min with the appropriate probe (dissolved in DMF, 1 µM concentration), and then the tested anthocyanins were added (final concentration of 1 to 30 µM). The control sample consisted of liposomes and a fluorescent probe. Fluorescence was measured on a fluorimeter (Cary Eclipse, Varian, San Diego, USA) at 37 °C. The excitation wavelengths λex and emission wavelengths λem respectively: MC540—λexc = 540 nm, λem = 590 nm; DPH—λexc = 360 nm, λem = 425 nm. nm; TMA-DPH—λexc = 340 nm, λem = 430 nm.

[2] = MC540 probe fluorescence intensity in MM liposomes; settings: 37 °C, positive = decrease
Experimental: as §1
(§4) To investigate these properties three fluorescent probes were used: MC540, TMA-DPH, and DPH. MC540 localizes to the outer, hydrophilic part of the membrane, within the region of the glycerol skeleton[44]. Changes in the fluorescence intensity of this probe were formulated as the relative change in intensity to the control as a function of anthocyanins concentration. The TMA-DPH and DPH probes are supposed to locate nearer to the interface and in the hydrophobic region, respectively[45]. The measurement of changes in the anisotropy of the TMA-DPH and DPH probes allowed us to reflect the mobility of the fluorescent probes in the membrane, and therefore to determine the fluidity of the bilayer[46]. Fluorescence anisotropy was calculated using the formula[47]:1 A=I‖-GI⊥/I‖+2GI⊥ where I‖ and I⊥ are the intensity of fluorescence in parallel and perpendicular directions, to the plane of polarization of the excitation wave, respectively. G is an apparatus constant that depends on the emission wavelength.
as §3

[3] = DPH probe fluorescence anisotropy in RBCM liposomes; design: species or system human; settings: RBCM, negative = increase in anisotropy
Experimental: as §1, §4, §3

[4] = DPH probe fluorescence anisotropy in MM liposomes; settings: MM, negative = increase in anisotropy
Experimental: as §1, §4, §3

[5] = TMA-DPH probe fluorescence anisotropy in MM liposomes; settings: negative = increase in anisotropy
Experimental: as §1, §4, §3

[6] = TMA-DPH probe fluorescence anisotropy in RBCM liposomes; design: species or system human; settings: negative = increase in anisotropy
Source text: Two types of liposomes were used to study interactions with biological membranes: liposomes mimicking the composition of cancer cell membranes (mimic membrane liposome—MM) and liposomes formed from lipids extracted from human blood erythrocyte membranes (red blood cell membrane liposome—RBCM). […] The RBCM liposome was according to the methodology described previously[42] with minor modifications[43]. Both lipids, dissolved in chloroform (MM liposome) and n-decane (RBCM liposome), were evaporated under a nitrogen atmosphere, and then dried in a desiccator for 90 min under a vacuum. The obtained dry lipid film was hydrated in phosphate buffer, pH 7.4, obtaining a concentration of 0.1 mg/ml, and then vortexed for one minute until a homogeneous, milky suspension was observed. The mixture was sonicated (Sonic, Milano, Italia) for 15 min keeping the sample in a bath of ice water, thus providing a cooling temperature of 0 °C. The suspension was then processed (extrusion) through polycarbonate filters with pore diameters of 100 and 200 nm using a Lipex extruder (Evonik). Liposomes, which had been prepared according to this procedure, was used in fluorimetric studies.
To investigate these properties three fluorescent probes were used: MC540, TMA-DPH, and DPH. MC540 localizes to the outer, hydrophilic part of the membrane, within the region of the glycerol skeleton[44]. […] The TMA-DPH and DPH probes are supposed to locate nearer to the interface and in the hydrophobic region, respectively[45]. The measurement of changes in the anisotropy of the TMA-DPH and DPH probes allowed us to reflect the mobility of the fluorescent probes in the membrane, and therefore to determine the fluidity of the bilayer[46]. Fluorescence anisotropy was calculated using the formula[47]:1 A=I‖-GI⊥/I‖+2GI⊥ where I‖ and I⊥ are the intensity of fluorescence in parallel and perpendicular directions, to the plane of polarization of the excitation wave, respectively. G is an apparatus constant that depends on the emission wavelength.
as §3

pHbApr-1-Neo plasmid DNA = assay: TCSPC-FCS of PicoGreen-labelled plasmid DNA with anthocyanins; assay type: binding
Experimental: To evaluate the biological interaction with DNA molecules the anthocyanins were initially dissolved in ETOH (1 mM). […] Mixing of such solutions with the aqueous DNA solutions used in the studies never exceeded 1% concentration ETOH (v/v) in the final solution. The DNA plasmid was labelled by PicoGreen (CPicoGreen/CDNAbp = 0.02)[52]. The pHbApr-1-Neo plasmid (10 kbp and contour length 3.4 µm) was a generous gift from the laboratory of Prof. Maciej Ugorski (Department of Biochemistry and Molecular Biology, Wrocław University of Environmental and Life Sciences Wroclaw, Poland). PicoGreen-labelled DNA samples mixed with the appropriate amount of anthocyanins were left overnight and then measured. The increasing concentration of anthocyanins in the tested samples was expressed as the ratio of the molar concentration of anthocyanins per molar concentration of DNA base pairs in a given sample (comp/bp). The 100 µl samples were measured in Ibidi 8-well chambers. Each point on the graph is a single sample (average of 10 measurements). All measurements were performed at room temperature (25 °C). Time-correlated single-photon counting fluorescence correlation spectroscopy (TCSPC-FCS) was used to study the interaction of plasmid DNA at the single molecule level with all tested anthocyanins. […] Low power of 1uW (at the back aperture of the objective) was chosen to minimize photobleaching and saturation. In the detection plane, a pinhole (50um in diameter) was used and the signal was collected by a single photon avalanche diode (SPAD, Microphoton Devices, Bolzano, Italy). Photon arrival times were stored using fast electronics (Picoharp 300, PicoQuant) in time-tagged time-resolved recording mode. Two independent times were assigned to each detected photon: (1) a time after the beginning of the measurement and (2) a time after the previous laser pulse. The FCS data analysis was done using home-built routines (DevC++, Bloodshed Software and OriginPro70, OriginLab Corporation). The TCSPC data analysis was performed using SymPhoTime software (PicoQuant). Further details of the data evaluation are given elsewhere.

[7] = MC540 probe fluorescence intensity in RBCM liposomes; design: species or system human; settings: 37 °C, positive = decrease
Experimental: as §1, §4, §3

[8] = DPH fluorescence quenching, dissociation constant with RBCM liposome membrane; assay type: binding, human; settings: 37 °C
Experimental: as §1, §2, §3

[9] = biological target: human serum albumin (HSA) (Homo sapiens, UniProt P02768); assay: Quenching of natural fluorescence of human serum albumin; assay type: binding; settings: HSA […] 10^–5 M, 37 °C
Experimental: The phenomenon of quenching the natural fluorescence of human serum albumin (HSA) was used to investigate the potential interaction of anthocyanins with this protein. […] Anthocyanins with concentrations ranging from 1 to 30 µM were added to HSA dissolved in phosphate buffer (1.5 × 10^–5 M) and then incubated at 37 °C for 20 min. Emission spectra were performed on a fluorimeter Cary Eclipse (Varian, San Diego, USA) at 37 °C. HSA fluorescence was excited with a wavelength of λ = 280 nm, the emission was measured in the range from 286 to 460 nm, and the fluorescence intensity was read at 345 nm where the emission maximum of HSA was located.
The Stern–Volmer equation was used to thoroughly describe the quenching mechanism of natural fluorescence and to determine the bindings parameters of HSA: anthocyanin complexes:4 F0/F=1+Kqτ0Q=1+KSV[Q] where F0—fluorescence intensity in the absence of anthocyanins (control sample), F—fluorescence intensity in the presence of anthocyanins, KSV—Stern–Volmer quenching constant (KSV = Kq·τ0), [Q]—concentration of quencher (tested compound), Kq—bimolecular quenching constant, τ0—a lifetime of the fluorophore in the absence of quencher the fluorescence lifetime of a biopolymer is calculated as 5 × 10^–9 s[51].
The apparent binding constants (Kb) and the number of binding sites (n) can be calculated using the following equation:5 log(F0-F/F]=logKb+nlog[Q]
F0 and F are the fluorescence intensities before and after the addition of the quencher. From the linear plot of log (F0 − F)/F versus log [Q], the value of Kb was obtained from the intercept.

[10] = 30 µM, listed as petunidin glucoside

Sequence of human serum albumin (HSA) (P02768 25-609): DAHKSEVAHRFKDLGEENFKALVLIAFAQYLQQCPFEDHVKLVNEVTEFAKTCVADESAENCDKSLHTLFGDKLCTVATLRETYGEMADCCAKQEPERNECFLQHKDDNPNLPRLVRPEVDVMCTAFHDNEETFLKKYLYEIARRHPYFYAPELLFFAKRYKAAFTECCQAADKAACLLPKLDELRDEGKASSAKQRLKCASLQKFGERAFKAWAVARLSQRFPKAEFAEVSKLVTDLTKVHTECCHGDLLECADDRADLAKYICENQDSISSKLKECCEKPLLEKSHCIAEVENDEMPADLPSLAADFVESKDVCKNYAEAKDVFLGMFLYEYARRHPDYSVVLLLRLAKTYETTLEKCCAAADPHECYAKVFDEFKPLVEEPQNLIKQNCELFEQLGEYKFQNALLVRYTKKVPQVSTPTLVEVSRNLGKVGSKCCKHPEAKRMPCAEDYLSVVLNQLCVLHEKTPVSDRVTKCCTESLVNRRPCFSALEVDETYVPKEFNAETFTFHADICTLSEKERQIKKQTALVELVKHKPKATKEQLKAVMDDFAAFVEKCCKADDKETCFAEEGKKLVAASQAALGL

Kd [1]: 114 ± 17.2 µM | Kd [8]: 28.2 ± 5.11 µM | Stern Volmer constant KSV [9]: 11.93 ± 1.61 × 10^3 M^−1 | number of binding sites n [9]: 0.91 ± 0.09
SMILES: COc1cc(-c2[o+]c3cc(O)cc(O)c3cc2OC2OC(CO)C(O)C(O)C2O)ccc1O (stereo not shown) [Pn 3-glc, Peonidin 3-O-glucoside]
Changes in MC540 fluorescence intensity relative to the control ([2]; 1 µM): 6.40±0.34% | Changes in MC540 fluorescence intensity relative to the control ([2]; 5 µM): 10.52±0.67% | Changes in MC540 fluorescence intensity relative to the control ([2]; 10 µM): 14.98±0.94% | Changes in MC540 fluorescence intensity relative to the control ([2]; 20 µM): 24.13±1.45% | Changes in MC540 fluorescence intensity relative to the control ([2]; 30 µM): 35.68±1.88% | Changes in DPH anisotropy relative to the control ([3]; 1 µM): -5.23±0.04% | Changes in DPH anisotropy relative to the control ([3]; 5 µM): -2.72±0.08% | Changes in DPH anisotropy relative to the control ([3]; 10 µM): -2.02±0.05% | Changes in DPH anisotropy relative to the control ([3]; 20 µM): -0.79±0.03% | Changes in DPH anisotropy relative to the control ([3]; 30 µM): -0.03±0.002% | Changes in DPH anisotropy relative to the control ([4]; 1 µM): -7.68±0.11% | Changes in DPH anisotropy relative to the control ([4]; 5 µM): -6.50±0.15% | Changes in DPH anisotropy relative to the control ([4]; 10 µM): -6.27±0.08% | Changes in DPH anisotropy relative to the control ([4]; 20 µM): -3.12±0.03% | Changes in DPH anisotropy relative to the control ([4]; 30 µM): -0.39±0.01% | Changes in TMA-DPH anisotropy relative to the control ([5]; 1 µM): -3.26±0.11% | Changes in TMA-DPH anisotropy relative to the control ([5]; 5 µM): -0.96±0.03% | Changes in TMA-DPH anisotropy relative to the control ([5]; 10 µM): 0.69±0.02% | Changes in TMA-DPH anisotropy relative to the control ([5]; 20 µM): 0.19±0.003% | Changes in TMA-DPH anisotropy relative to the control ([5]; 30 µM): 1.63±0.05% | Changes in TMA-DPH anisotropy relative to the control ([6]; 1 µM): -2.75±0.12% | Changes in TMA-DPH anisotropy relative to the control ([6]; 5 µM): -0.59±0.03% | Changes in TMA-DPH anisotropy relative to the control ([6]; 10 µM): -0.56±0.02% | Changes in TMA-DPH anisotropy relative to the control ([6]; 20 µM): -0.61±0.03% | Changes in TMA-DPH anisotropy relative to the control ([6]; 30 µM): 0.65±0.04% | lifetime (LT) (pHbApr-1-Neo plasmid DNA; 0 < comp/bp < 1, decrease from 4.25 ns): about 3.25 ns | lifetime (LT) (pHbApr-1-Neo plasmid DNA; comp/bp from 1 to 10, minor further decrease): about 2.75 ns | decrease in the diffusion time (tD) (pHbApr-1-Neo plasmid DNA; tested range of comp/bp from 0 to 10): 2.5 fold | Changes in MC540 fluorescence intensity relative to the control ([7]; 1 µM): 16.40±0.66% | Changes in MC540 fluorescence intensity relative to the control ([7]; 5 µM): 20.98±1.80% | Changes in MC540 fluorescence intensity relative to the control ([7]; 10 µM): 29.53±2.47% | Changes in MC540 fluorescence intensity relative to the control ([7]; 20 µM): 38.00±0.57% | Changes in MC540 fluorescence intensity relative to the control ([7]; 30 µM): 50.34±2.93%

Kd [1]: 29.3 ± 5.43 µM | Kd [8]: 46.9 ± 6.8 µM | Stern Volmer constant KSV [9]: 5.50 ± 0.94 × 10^3 M^−1 | number of binding sites n [9]: 0.92 ± 0.04
SMILES: COc1cc(-c2[o+]c3cc(O)cc(O)c3cc2OC2OC(CO)C(O)C(O)C2O)cc(O)c1O (stereo not shown) [Pt 3-glc, Petunidin 3-O-glucoside]
Changes in MC540 fluorescence intensity relative to the control ([2]; 1 µM): 6.95±0.35% | Changes in MC540 fluorescence intensity relative to the control ([2]; 5 µM): 10.52±0.57% | Changes in MC540 fluorescence intensity relative to the control ([2]; 10 µM): 17.35±0.69% | Changes in MC540 fluorescence intensity relative to the control ([2]; 20 µM): 31.49±1.78% | Changes in MC540 fluorescence intensity relative to the control ([2]; 30 µM): 42.63±0.74% | Changes in MC540 fluorescence intensity relative to the control [2, 10]: 42.6 ± 0.7% | Changes in DPH anisotropy relative to the control ([3]; 1 µM): -7.54±0.13% | Changes in DPH anisotropy relative to the control ([3]; 5 µM): -7.10±0.35% | Changes in DPH anisotropy relative to the control ([3]; 10 µM): -7.11±0.42% | Changes in DPH anisotropy relative to the control ([3]; 20 µM): -7.30±0.53% | Changes in DPH anisotropy relative to the control ([3]; 30 µM): -7.24±0.48% | Changes in DPH anisotropy relative to the control ([4]; 1 µM): -5.67±0.28% | Changes in DPH anisotropy relative to the control ([4]; 5 µM): -9.84±0.13% | Changes in DPH anisotropy relative to the control ([4]; 10 µM): -9.71±0.15% | Changes in DPH anisotropy relative to the control ([4]; 20 µM): -7.55±0.12% | Changes in DPH anisotropy relative to the control ([4]; 30 µM): -6.11±0.03% | Changes in TMA-DPH anisotropy relative to the control ([5]; 1 µM): -3.47±0.16% | Changes in TMA-DPH anisotropy relative to the control ([5]; 5 µM): -2.18±0.02% | Changes in TMA-DPH anisotropy relative to the control ([5]; 10 µM): -2.04±0.07% | Changes in TMA-DPH anisotropy relative to the control ([5]; 20 µM): 0.91±0.03% | Changes in TMA-DPH anisotropy relative to the control ([5]; 30 µM): -2.20±0.06% | Changes in TMA-DPH anisotropy relative to the control ([6]; 1 µM): -2.24±0.09% | Changes in TMA-DPH anisotropy relative to the control ([6]; 5 µM): -0.99±0.03% | Changes in TMA-DPH anisotropy relative to the control ([6]; 10 µM): 1.63±0.07% | Changes in TMA-DPH anisotropy relative to the control ([6]; 20 µM): -0.47±0.02% | Changes in TMA-DPH anisotropy relative to the control ([6]; 30 µM): 3.60±0.11% | decrease in the diffusion time (tD) (pHbApr-1-Neo plasmid DNA; comp/bp = 1, from about 70 ms): ~20 fold | lifetime (LT) (pHbApr-1-Neo plasmid DNA; comp/bp = 1, plasmid alone 4.25 ns): about 3.0 ns | Particle Number (PN) (pHbApr-1-Neo plasmid DNA; comp/bp = 1, plasmid alone 5): about 0.7 | diffusion time (tD) (pHbApr-1-Neo plasmid DNA; comp/bp = 1, plasmid alone about 70 ms): 3.5 ms | Changes in MC540 fluorescence intensity relative to the control ([7]; 1 µM): 13.68±0.65% | Changes in MC540 fluorescence intensity relative to the control ([7]; 10 µM): 28.28±3.62% | Changes in MC540 fluorescence intensity relative to the control ([7]; 20 µM): 41.75±7.08% | Changes in MC540 fluorescence intensity relative to the control ([7]; 30 µM): 58.91±14.03% | Changes in MC540 fluorescence intensity relative to the control [7, 10]: 58.9 ± 14.0%
